# In patent US4684739A, “Alkylenedioxybenzene derivatives and acid addition salts thereof” (Mitsubishi Chemical Industries Limited, priority 1980, dated 1987):
# Counter-ions that a name gives are not always drawn.
# Assays:
# [1] = test system: spontaneous hypertensive rats (SHR); experiment: Hypotensive effect in spontaneous hypertensive rats after oral administration; type: in vivo; settings: Rattus norvegicus, percent drop relative to blood pressure before medication; for inhibition in vivo at 1 mg/kg: 1 mg/kg p.o.; for inhibition in vivo at 3 mg/kg: 3 mg/kg p.o.; for inhibition in vivo at 10 mg/kg: 10 mg/kg p.o.
# Protocol: The hypotensive activities of the compounds of this invention were tested as follows: The test animals used were spontaneous hypertensive rats (SHR) of 5 to 7 month old weighing 300 to 370 g. The blood pressure and the heart rate were measured bloodily under no anesthesia by means of a cathether which has been inserted through the tail's artery under ether anesthesia, thereby determining the average blood pressure and heart rate before medication. […] The hypotensive effect was expressed as percent drop relative to the blood pressure before medication.
# [2] = Acute toxicity (LD50) in mice, Litchfield-Wilcoxon method; settings: mouse, in vivo
# Protocol: The values for acute toxicity (LD50 ) were calculated by the Litchfield-Wilcoxon method from the data obtained on mice.
Structure (SMILES),inhibition in vivo at 1 mg/kg [1] [%],inhibition in vivo at 3 mg/kg [1] [%],inhibition in vivo at 10 mg/kg [1] [%],LD50 ([2]; iv) [mg/kg],LD50 ([2]; po) [mg/kg],LD50 ([2]; ip) [mg/kg]
"OC(CNCC1COc2ccccc2O1)COc1ccc2c(c1)OCCO2 (stereo not drawn) [Compound 2, 6-[3-{(1,4-benzodioxan-2-ylmethyl)amino}-2-hydroxypropoxy]-1,4-benzodioxane]",9,20.2,30.4,,,
"O=C(CCNCC1COc2ccccc2O1)Nc1ccc2c(c1)OCO2 (stereo not drawn) [Compound 18, N-[3-{(1,4-benzodioxan-2-ylmethyl)amino}propionyl]-3,4-methylenedioxyaniline]",11.9,27.5,41,,,
c1ccc2c(c1)OCC(CNCCCCOc1cccc3c1OCO3)O2 (stereo not drawn) [Compound 10],,30.6,40,,,
"c1ccc2c(c1)OCC(CNCCCNc1ccc3c(c1)OCO3)O2 (stereo not drawn) [Compound 19, N-[3-{(1,4-benzodioxan-2-ylmethyl)amino}propyl]-3,4-methylenedioxyaniline]",19.6,27.8,44.3,,,
"c1ccc2c(c1)OCC(CNCCCCc1ccc3c(c1)OCCO3)O2 (stereo not drawn) [Compound 16, 6-[4-{(1,4-benzodioxan-2-ylmethyl)amino}butyl]-1,4-benzodioxane]",12.1,33.7,50,31,,
c1ccc2c(c1)OCC(CNCCCCOc1ccc3c(c1)OCO3)O2 (stereo not drawn) [Compound 6],,28.5,32,,,
"Cl.OC(CNCC1COc2ccccc2O1)COc1ccc2c(c1)OCO2 (stereo not drawn) [Compound 1, 5-[3-{(1,4-benzodioxan-2-ylmethyl)amino}-2-hydroxypropoxy]-1,3-benzodioxole hydrochloride]",9.9,15.4,27.6,,515,
"OC(CNCC1COc2ccccc2O1)c1ccc2c(c1)OCCO2 (stereo not drawn) [Compound 21, 6-[2-{(1,4-benzodioxan-2-ylmethyl)amino}-1-hydroxyethyl]-1,4-benzodioxane]",9.8,19.5,39.1,,,
"Cl.c1ccc2c(c1)OCC(CNCCCOc1ccc3c(c1)OCO3)O2 (stereo not drawn) [Compound 5, 5-[3-{(1,4-benzodioxan-2-ylmethyl)amino}propoxy]-1,3-benzodioxole hydrochloride]",,32.6,47.6,,,165
"O=C(CCNCC1COc2ccccc2O1)c1ccc2c(c1)OCO2 (stereo not drawn) [Compound 27, reference compound]",7.8,12.8,30.3,,,
"c1ccc2c(c1)OCC(CNCCCCc1ccc3c(c1)OCCCO3)O2 (stereo not drawn) [Compound 17, 1-[4-{(1,4-benzodioxan-2-ylmethyl)amino}butyl]-3,4-trimethylenedioxybenzene hydrochloride]",20.1,29.7,,,,
"c1ccc2c(c1)OCC(CNCCCOc1ccc3c(c1)OCCO3)O2 (stereo not drawn) [Compound 7, 6-[3-{(1,4-benzodioxan-2-ylmethyl)amino}propoxy]-1,4-benzodioxane]",,35.2,55.3,,,
"Cl.O=C(CNCC1COc2ccccc2O1)c1ccc2c(c1)OCO2 (stereo not drawn) [Compound 12, 5-[2-{(1,4-benzodioxan-2-ylmethyl)amino}acetyl]-1,3-benzodioxole hydrochloride]",20.1,28.2,42.3,,1350,
"c1ccc2c(c1)OCC(CNCCOc1cccc3c1OCO3)O2 (stereo not drawn) [Compound 26, reference compound]",,3.5,8.1,,,
"c1ccc2c(c1)OCC(CNCCCOc1ccc3c(c1)OCCCO3)O2 (stereo not drawn) [Compound 9, 1-[3-{(1,4-benzodioxan-2-ylmethyl)amino}propoxy]-3,4-trimethylenedioxybenzene]",,30.1,48.4,,,
